Source: PubChem BioAssay (NCI)
Several values for one entry are separate records, joined by “and”; a condition that tells them apart may be missing. Identical values can stand only once.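 Cells were grown in 96-well plates and exposed to each compound for 48 hours at five concentrations; endpoints were interpolated linearly between bracketing concentrations, or set to the highest concentration if not reached. Abbreviation: GI50, concentration required for 50% inhibition of growth. TGI is the concentration that stops growth completely.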

Legend:
Test in all cases: NCI tumour cell line growth inhibition, 48 h
[1] = system: A549 NSCLC
[2] = system: ACHN renal
[3] = system: COLO 205 colon
[4] = system: MDA-MB-435
[5] = system: OVCAR-4 ovarian
[6] = system: RXF 393 renal
[7] = system: SK-MEL-28 melanoma
[8] = system: SK-OV-3 ovarian
[9] = system: UACC-62 melanoma
[10] = system: UO-31 renal

Row | Compound | TGI [1] | TGI [2] | TGI [3] | TGI [4] | TGI [5] | TGI [6] | TGI [7] | TGI [8] | TGI [9] | TGI [10] | GI50 [5] | GI50 [6] | GI50 [9]
1 | Cc1n[nH]c(=O)n1-n1cccc1 | > 100 µM | > 100 µM | > 100 µM | > 100 µM | > 100 µM | > 100 µM | > 100 µM | > 100 µM | > 100 µM | > 100 µM | – | – | –
2 | CC(=O)Oc1cc2c(cc1OCC(F)(F)F)[C@H]1CC[C@]3(C)[C@@H](OC(C)=O)CC[C@H]3[C@@H]1CC2=O | 77.7 µM | 60 µM | 89.6 µM | > 72.1 µM | 63.8 µM | 50 µM | > 67.6 µM | 59.7 µM | 42.6 µM | 42.2 µM | – | – | –
3 | O=C(OCCN=c1c2ccccc2ccc2ccccc12)c1cc([N+](=O)[O-])cc([N+](=O)[O-])c1 | > 100 µM | > 100 µM | > 100 µM | > 100 µM | > 100 µM | > 100 µM | > 100 µM | > 100 µM | > 100 µM | > 100 µM | – | – | –
4 | C/C(=N/NC(=S)Nc1ccc(C)cc1)c1ccccn1 | 14 µM | 11.9 µM | 1.95 µM | 15 µM | 17.2 µM | 11 µM | 24.3 µM | 17 µM | 2.64 µM | 12.6 µM | – | – | –
5 | O=c1[nH]c2c(Nc3c4ccccc4nc4ccccc34)c([N+](=O)[O-])c(Nc3c4ccccc4nc4ccccc34)c([N+](=O)[O-])c2[nH]1 | 3.56 µM | 4.78 µM | 5.02 µM | 7.29 µM | 10.1 µM | 7.19 µM | 11.3 µM | 18.4 µM | 3.32 µM | 2.76 µM | – | – | –
6 | O=C(N/N=C/c1ccccc1)c1c(F)c(F)c(F)c(F)c1F | > 100 µM | > 100 µM | > 100 µM | > 100 µM | > 100 µM | > 100 µM | > 100 µM | > 100 µM | > 100 µM | > 100 µM | – | – | –
7 | O=C1Nc2noc(=O)nc2NO1 | > 200 µM | > 200 µM | > 200 µM | > 200 µM | > 200 µM | > 200 µM | > 200 µM | > 200 µM | > 200 µM | > 200 µM | – | – | –
8 | Cc1nnc(SCc2nc(C#N)c(C#N)nc2CSc2nnc(C)s2)s1 | > 100 µM | 22.5 µM | 25.5 µM | 26.4 µM | 31.5 µM | 18 µM | > 90.8 µM | > 75.9 µM | 30.7 µM | 24.1 µM | – | – | –
9 | CCCCCCCCCCCCOCC(COP(=O)(O)OCCN=[N+]=[N-])OC(=O)CCCCCCCCCCC (stereo not drawn) | > 100 µM | > 100 µM | > 100 µM | > 100 µM | > 100 µM | > 100 µM | > 100 µM | > 100 µM | > 100 µM | > 100 µM | – | – | –
10 | OCCN1CCN(c2nc(N3CCCC3)c3nc(Cl)c(NCc4ccccc4)nc3n2)CC1 | 21.4 µM | 20.7 µM | 6.73 µM | 10.7 µM | 25.4 µM | 3.68 µM | 9.08 µM | 27.5 µM | 9.26 µM | 11.5 µM | – | – | –
11 | COc1cc2c(cc1O)NC(=O)[C@@H]1C[C@@H](O)CN1C2=O | > 100 µM | > 100 µM | > 100 µM | > 100 µM | > 100 µM | > 100 µM | > 100 µM | > 100 µM | > 100 µM | > 100 µM | – | – | –
12 | CC(C)Oc1cccc(N2C(CCc3c[nH]c4ccc(Br)cc34)=NS(=O)(=O)c3cnccc32)c1 | > 100 µM | > 100 µM | 41.9 µM | > 100 µM | > 100 µM | > 100 µM | > 100 µM | > 100 µM | > 100 µM | > 100 µM | – | – | –
13 | COC1=C(OC)C(=O)C(Cc2c(Cl)nc3sccn23)=C(C)C1=O | 25.1 µM | 27.8 µM | 29.2 µM | 21.8 µM | 18.8 µM | 31.1 µM | 24.4 µM | 21.7 µM | 20.6 µM | 23.6 µM | – | – | –
14 | O=C1/C(=C\c2cccc(Oc3ccccc3)c2)SC(c2ccccc2)N1c1cc(Cl)ccc1Cl (stereo not drawn) | > 100 µM | > 100 µM | > 100 µM | > 100 µM | > 100 µM | 76.5 µM | > 100 µM | > 100 µM | > 100 µM | > 100 µM | – | – | –
15 | COc1ccccc1N=Nc1c(O)ccc2ccccc12 | > 100 µM | 27.2 µM | > 100 µM | > 100 µM | 62.9 µM and 95.2 µM | 35.3 µM and 59.7 µM | > 100 µM | 29.5 µM and 38.3 µM | > 100 µM | 39.1 µM | 10.2 µM and 35.4 µM | 12.3 µM and 28.7 µM | 30.4 µM and 61.4 µM
16 | Cc1ccc(C(=O)Nc2ccc(CP(=O)(O)O)cc2CP(=O)(O)O)cc1N | > 100 µM | > 100 µM | > 100 µM | > 100 µM | > 100 µM | > 100 µM | > 100 µM | > 100 µM | > 100 µM | > 100 µM | – | – | –
17 | CCCCCCCCCCCC1=C(O)C(=O)C(CC2=C(O)C(=O)C(CCCCCCCCCCC)=C(O)C2=O)=C(O)C1=O | > 100 µM | > 100 µM | > 100 µM | > 100 µM | > 100 µM | 25.2 µM | > 100 µM | > 100 µM | > 100 µM | > 100 µM | – | – | –
18 | Cc1ccc(S(=O)(=O)N/N=c2/sc3ccccc3n2C)cc1 | > 100 µM | > 100 µM | > 100 µM | > 100 µM | > 100 µM | > 100 µM | > 100 µM | > 100 µM | > 100 µM | > 100 µM | – | – | –
19 | Clc1[nH]nc2ccccc12 | > 100 µM | > 100 µM | > 100 µM | > 100 µM | > 100 µM | > 100 µM | > 100 µM | > 100 µM | > 100 µM | > 100 µM | – | – | –
